Laboratory results from patent US8349826B2, “Oxazolidinone derivatives” (Actelion Pharmaceuticals Ltd., priority 2008, dated 2013).
In brackets after ≈: the same amount, converted by molar mass.

The compounds below were run on Moraxella catarrhalis A894 (assay: MIC by broth microdilution (cation-adjusted Mueller-Hinton Broth, CLSI M7-A7)).
Type: cell-based
Experimental: Minimal inhibitory concentrations (MICS; mg/l) were determined in cation-adjusted Mueller-Hinton Broth by a microdilution procedure following the description given in “Procedures for Dilution Antimicrobial Susceptibility Tests for Bacteria that Grow Aerobically”, Approved standard, 7th ed., Clinical and Laboratory Standards Institute (CLSI) Document M7-A7, Wayne, Pa., USA, 2006. All Example compounds were tested against several Gram positive and Gram negative bacteria such as S. aureus, E. faecalis, S. pneumoniae, M. catarrhalis, A. baumanii, E. coli or P. aeruginosa.

| SMILES | MIC | MIC Moraxella catarrhalis A894 |
| --- | --- | --- |
| COc1ccc2ncc(=O)n(CC(N)C(=O)NC[C@@H]3CN(c4ccc5c(c4)OCCO5)C(=O)O3)c2c1 (mixture of isomers) [Example 12, (RS)-2-amino-N-[(R)-3-(2,3-dihydro-benzo[1,4]dioxin-6-yl)-2-oxo-oxazolidin-5-ylmethyl]-3-(7-methoxy-2-oxo-2H-quinoxalin-1-yl)-propionamide] | 1 µg/mL |  |
| COc1ccc2ccc(=O)n(C3CN(CCC4CN(c5ccc6c(c5)NC(=O)CS6)C(=O)O4)C3)c2c1 (racemic) [Example 5, (RS)-6-(5-{2-[3-(7-methoxy-2-oxo-2H-quinolin-1-yl)-azetidin-1-yl]-ethyl}-2-oxo-oxazolidin-3-yl)-4H-benzo[1,4]thiazin-3-one] | 0.25 µg/mL (≈ 0.494 µM) |  |
| COc1ccc2ncc(=O)n(CCNCCC3CN(c4cc5c(cn4)OCCO5)C(=O)O3)c2n1 (racemic) [Example 31, rac-4-(2-{2-[3-(2,3-dihydro-[1,4]dioxino[2,3-c]pyridin-7-yl)-2-oxo-oxazolidin-5-yl]-ethylamino}-ethyl)-6-methoxy-4H-pyrido[2,3-b]pyrazin-3-one] | 1 µg/mL (≈ 2.13 µM) |  |
| O=C1CSc2ccc(N3C[C@@H](CNCCCn4c(=O)ccc5ccc(Br)cc54)OC3=O)cc2N1 [Example 2] |  | <=0.031 mg/l |
| COc1ccc2ccc(=O)n(CCC(=O)NC[C@@H]3CN(c4ccc5c(c4)OCCO5)C(=O)O3)c2c1 [Example 7, N-[(R)-3-(2,3-dihydro-benzo[1,4]dioxin-6-yl)-2-oxo-oxazolidin-5-ylmethyl]-3-(7-methoxy-2-oxo-2H-quinolin-1-yl)-propionamide] | 0.5 µg/mL (≈ 1.04 µM) |  |
| O=C(CCn1c(=O)ccc2ccc(Br)cc21)NC[C@@H]1CN(c2ccc3c(c2)OCCO3)C(=O)O1 [Example 8, 3-(7-bromo-2-oxo-2H-quinolin-1-yl)-N-[(R)-3-(2,3-dihydro-benzo[1,4]dioxin-6-yl)-2-oxo-oxazolidin-5-ylmethyl]-propionamide] | 0.25 µg/mL (≈ 0.473 µM) |  |
| COc1ccc2ncc(=O)n(CCC(=O)NC[C@@H]3CN(c4ccc5c(c4)OCCO5)C(=O)O3)c2c1 [Example 10, N-[(R)-3-(2,3-dihydro-benzo[1,4]dioxin-6-yl)-2-oxo-oxazolidin-5-ylmethyl]-3-(7-methoxy-2-oxo-2H-quinoxalin-1-yl)-propionamide] | 0.125 µg/mL (≈ 0.26 µM) |  |
| COc1ccc2ncc(=O)n(CCCNC[C@@H]3CN(c4ccc5c(c4)NC(=O)CS5)C(=O)O3)c2n1 [Example 17, 6-methoxy-4-(3-{[(R)-2-oxo-3-(3-oxo-3,4-dihydro-2H-benzo[1,4]thiazin-6-yl)-oxazolidin-5-ylmethyl]-amino}-propyl)-4H-pyrido[2,3-b]pyrazin-3-one] | ≤ 0.031 µg/mL |  |
| COc1ccc2ncc(=O)n(CCCNC[C@@H]3CN(c4ccc5c(c4)OCCO5)C(=O)O3)c2n1 [Example 18, 4-(3-{[(R)-3-(2,3-dihydro-benzo[1,4]dioxin-6-yl)-2-oxo-oxazolidin-5-ylmethyl]-amino}-propyl)-6-methoxy-4H-pyrido[2,3-b]pyrazin-3-one] | ≤ 0.031 µg/mL |  |
| COc1ccc2ncc(=O)n(CCCNC[C@@H]3CN(c4ccc5c(c4)NC(=O)CO5)C(=O)O3)c2n1 [Example 19, 6-methoxy-4-(3-{[(R)-2-oxo-3-(3-oxo-3,4-dihydro-2H-benzo[1,4]oxazin-6-yl)-oxazolidin-5-ylmethyl]-amino}-propyl)-4H-pyrido[2,3-b]pyrazin-3-one] | ≤ 0.031 µg/mL |  |
| COc1ccc2ncc(=O)n(CCNCC[C@@H]3CN(c4ccc5c(c4)NC(=O)CS5)C(=O)O3)c2n1 [Example 20, 6-methoxy-4-(2-{2-[(R)-2-oxo-3-(3-oxo-3,4-dihydro-2H-benzo[1,4]thiazin-6-yl)-oxazolidin-5-yl]-ethylamino}-ethyl)-4H-pyrido[2,3-b]pyrazin-3-one] | ≤ 0.031 µg/mL |  |
| COc1ccc2ncc(=O)n(CCNCC[C@@H]3CN(c4ccc5c(c4)NC(=O)CO5)C(=O)O3)c2n1 [Example 21, 6-methoxy-4-(2-{2-[(R)-2-oxo-3-(3-oxo-3,4-dihydro-2H-benzo[1,4]oxazin-6-yl)-oxazolidin-5-yl]-ethylamino}-ethyl)-4H-pyrido[2,3-b]pyrazin-3-one] | ≤ 0.031 µg/mL |  |
| COc1ccc2ncc(=O)n(C3CN(CC[C@@H]4CN(c5ccc6c(c5)NC(=O)CS6)C(=O)O4)C3)c2n1 [Example 22, 6-methoxy-4-(1-{2-[(R)-2-oxo-3-(3-oxo-3,4-dihydro-2H-benzo[1,4]thiazin-6-yl)-oxazolidin-5-yl]-ethyl}-azetidin-3-yl)-4H-pyrido[2,3-b]pyrazin-3-one] | ≤ 0.031 µg/mL |  |
| COc1ccc2ncc(=O)n(C3CN(CCC[C@@H]4CN(c5ccc6c(c5)NC(=O)CS6)C(=O)O4)C3)c2n1 [Example 23, 6-methoxy-4-(1-{3-[(R)-2-oxo-3-(3-oxo-3,4-dihydro-2H-benzo[1,4]thiazin-6-yl)-oxazolidin-5-yl]-propyl}-azetidin-3-yl)-4H-pyrido[2,3-b]pyrazin-3-one] | ≤ 0.031 µg/mL |  |
| COc1ccc2ncc(=O)n(C3CN(CC[C@H]4CN(c5ccc6c(c5)NC(=O)CS6)C(=O)O4)C3)c2n1 [Example 24, 6-methoxy-4-(1-{2-[(S)-2-oxo-3-(3-oxo-3,4-dihydro-2H-benzo[1,4]thiazin-6-yl)-oxazolidin-5-yl]-ethyl}-azetidin-3-yl)-4H-pyrido[2,3-b]pyrazin-3-one] | ≤ 0.031 µg/mL |  |
| COc1ccc2ncc(=O)n(C[C@H](O)CNC[C@@H]3CN(c4ccc5c(c4)NC(=O)CS5)C(=O)O3)c2n1 [Example 25, 4-((R)-2-hydroxy-3-{[(R)-2-oxo-3-(3-oxo-3,4-dihydro-2H-benzo[1,4]thiazin-6-yl)-oxazolidin-5-ylmethyl]-amino}-propyl)-6-methoxy-4H-pyrido[2,3-b]pyrazin-3-one] | ≤ 0.031 µg/mL |  |
| COc1ccc2ncc(=O)n(C[C@H](O)CNC[C@@H]3CN(c4ccc5c(c4)OCCO5)C(=O)O3)c2n1 [Example 26, 4-((R)-3-{[(R)-3-(2,3-dihydro-benzo[1,4]dioxin-6-yl)-2-oxo-oxazolidin-5-ylmethyl]-amino}-2-hydroxy-propyl)-6-methoxy-4H-pyrido[2,3-b]pyrazin-3-one] | 0.25 µg/mL (≈ 0.517 µM) |  |
| COc1ccc2ncc(=O)n(C[C@H](O)CNC[C@@H]3CN(c4ccc5c(c4)NC(=O)CO5)C(=O)O3)c2n1 [Example 27] |  | <=0.031 mg/l |

Continued, in another order:

| MIC | SMILES | MIC Moraxella catarrhalis A894 |
| --- | --- | --- |
| ≤ 0.031 µg/mL | COc1ccc2ncc(=O)n(CCNCCC3CN(c4ccc5c(n4)NC(=O)CO5)C(=O)O3)c2n1 (racemic) [Example 33, rac-6-(5-{2-[2-(6-methoxy-3-oxo-3H-pyrido[2,3-b]pyrazin-4-yl)-ethylamino]-ethyl}-2-oxo-oxazolidin-3-yl)-4H-pyrido[3,2-b][1,4]oxazin-3-one] |  |
| ≤ 0.031 µg/mL | COc1ccc2ccc(=O)n(CCCNC[C@@H]3CN(c4ccc5c(c4)NC(=O)CS5)C(=O)O3)c2c1 [Example 1, 6-((R)-5-{[3-(7-methoxy-2-oxo-2H-quinolin-1-yl)-propylamino]-methyl}-2-oxo-oxazolidin-3-yl)-4H-benzo[1,4]thiazin-3-one] |  |
| ≤ 0.031 µg/mL | COc1ccc2ccc(=O)n(CCCNC[C@@H]3CN(c4ccc5c(c4)OCCO5)C(=O)O3)c2c1 [Example 3, 1-(3-{[(R)-3-(2,3-dihydro-benzo[1,4]dioxin-6-yl)-2-oxo-oxazolidin-5-ylmethyl]-amino}-propyl)-7-methoxy-1H-quinolin-2-one] |  |
| ≤ 0.031 µg/mL | O=C1O[C@H](CNCCCn2c(=O)ccc3ccc(Br)cc32)CN1c1ccc2c(c1)OCCO2 [Example 4, 7-bromo-1-(3-{[(R)-3-(2,3-dihydro-benzo[1,4]dioxin-6-yl)-2-oxo-oxazolidin-5-ylmethyl]-amino}-propyl)-1H-quinolin-2-one] |  |
| ≤ 0.031 µg/mL | COc1ccc2ncc(=O)n(CCC(=O)NC[C@@H]3CN(c4ccc5c(c4)NC(=O)CS5)C(=O)O3)c2c1 [Example 6, 3-(7-methoxy-2-oxo-2H-quinoxalin-1-yl)-N-[(R)-2-oxo-3-(3-oxo-3,4-dihydro-2H-benzo[1,4]thiazin-6-yl)-oxazolidin-5-ylmethyl]-propionamide] |  |
| ≤ 0.031 µg/mL | O=C(CCn1c(=O)ccc2ccc(Br)cc21)NC[C@@H]1CN(c2ccc3c(c2)NC(=O)CS3)C(=O)O1 [Example 9, 3-(7-bromo-2-oxo-2H-quinolin-1-yl)-N-[(R)-2-oxo-3-(3-oxo-3,4-dihydro-2H-benzo[1,4]thiazin-6-yl)-oxazolidin-5-ylmethyl]-propionamide] |  |
| ≤ 0.031 µg/mL | COc1ccc2ccc(=O)n(CCC(=O)NC[C@@H]3CN(c4ccc5c(c4)NC(=O)CS5)C(=O)O3)c2c1 [Example 11, 3-(7-methoxy-2-oxo-2H-quinolin-1-yl)-N-[(R)-2-oxo-3-(3-oxo-3,4-dihydro-2H-benzo[1,4]thiazin-6-yl)-oxazolidin-5-ylmethyl]-propionamide] |  |
| ≤ 0.031 µg/mL | COc1ccc2ccc(=O)n(C[C@H](O)CNC[C@@H]3CN(c4ccc5c(c4)NC(=O)CO5)C(=O)O3)c2c1.Cl [Example 13, 6-((R)-5-{[(R)-2-hydroxy-3-(7-methoxy-2-oxo-2H-quinolin-1-yl)-propylamino]-methyl}-2-oxo-oxazolidin-3-yl)-4H-benzo[1,4]oxazin-3-one hydrochloride] |  |
| ≤ 0.031 µg/mL | COc1ccc2ccc(=O)n(C[C@H](O)CNC[C@@H]3CN(c4ccc5c(c4)NC(=O)CS5)C(=O)O3)c2c1.Cl [Example 14, 6-((R)-5-{[(R)-2-hydroxy-3-(7-methoxy-2-oxo-2H-quinolin-1-yl)-propylamino]-methyl}-2-oxo-oxazolidin-3-yl)-4H-benzo[1,4]thiazin-3-one hydrochloride] |  |
| ≤ 0.031 µg/mL | COc1ccc2ccc(=O)n(C[C@@H](O)CNC[C@@H]3CN(c4ccc5c(c4)NC(=O)CS5)C(=O)O3)c2c1 [Example 15, 6-((R)-5-{[(S)-2-hydroxy-3-(7-methoxy-2-oxo-2H-quinolin-1-yl)-propylamino]-methyl}-2-oxo-oxazolidin-3-yl)-4H-benzo[1,4]thiazin-3-one] |  |
| ≤ 0.031 µg/mL | COc1ccc2ccc(=O)n(C[C@@H](O)CNC[C@@H]3CN(c4cc5c(cc4F)SCC(=O)N5)C(=O)O3)c2c1 [Example 16, 7-fluoro-6-((R)-5-{[(S)-2-hydroxy-3-(7-methoxy-2-oxo-2H-quinolin-1-yl)-propylamino]-methyl}-2-oxo-oxazolidin-3-yl)-4H-benzo[1,4]thiazin-3-one] |  |
